Residue numbers refer to the chain shown, from its start.
Key:
[1] = test system: T. gondii TgCDPK1 G128M TgMAPKL1 L162Q; test: T. gondii proliferation inhibition, remaining host cell nuclei (DAPI), double mutant G128M/L162Q; assay type: cell-based, Toxoplasma gondii; conditions: for EC50: read-out: TgCDPK1 G128M TgMAPKL1 L162Q EC50 (95% CI), double mutant, remaining host cell nuclei, 5 days
T. gondii TgCDPK1 G128M = test: T. gondii proliferation inhibition, remaining host cell nuclei (DAPI), TgCDPK1 G128M strain; assay type: cell-based, Toxoplasma gondii
T. gondii TgMAPKL1 S191Y = conditions: cited from earlier work
T. gondii parent strain = test: T. gondii proliferation inhibition, remaining host cell nuclei (DAPI), parent strain; assay type: cell-based, Toxoplasma gondii; conditions: read-out: parent EC50 (95% CI), 5 days
T. gondii TgMAPKL1 L162Q = test: T. gondii proliferation inhibition, remaining host cell nuclei (DAPI), TgMAPKL1 L162Q strain; assay type: cell-based, Toxoplasma gondii; conditions: for EC50: read-out: TgMAPKL1 L162Q EC50 (95% CI), remaining host cell nuclei, 5 days
T. gondii cell cycle = conditions: cited from earlier work
[2] = test system: T. gondii with a L162Q substitution in TgMAPKL1; test: T. gondii proliferation inhibition assay, β-galactosidase readout, TgMAPKL1 L162Q strain; assay type: cell-based, Toxoplasma gondii; conditions: for EC50: read-out: TgMAPKL1 L162Q EC50 (95% CI), TgMAPKL1 L162Q strain, β-galactosidase activity, 72 h; for Fold Increase EC50: TgMAPKL1 L162Q vs parent strain, β-galactosidase assay
[3] = test system: T. gondii TgMAPKL1 parental strain (RH, β-galactosidase transgene); test: T. gondii proliferation inhibition assay, β-galactosidase readout, parent strain; assay type: cell-based, Toxoplasma gondii; conditions: read-out: TgMAPKL1 Parental EC50 (95% CI), β-galactosidase activity, 72 h
[4] = test system: RH-strain T. gondii tachyzoites; test: Determination of mutagen concentration killing T. gondii tachyzoites; assay type: cell-based, Toxoplasma gondii; conditions: RH-strain tachyzoites expressing β-galactosidase and GFP
T. gondii TgCDPK1 G128T = test: T. gondii proliferation inhibition, remaining host cell nuclei (DAPI), TgCDPK1 G128T strain; assay type: cell-based, Toxoplasma gondii; conditions: read-out: TgCDPK1 G128T EC50 (95% CI), 5 days
TgCDPK1 128M = molecular target: T1, TgCDPK1 128M (Toxoplasma gondii, UniProt Q9BJF5, G128M); test: TgCDPK1 enzyme inhibition assay (Kinase Glo), methionine gatekeeper mutant; assay type: biochemical; conditions: for Fold Increase IC50: TgCDPK1 128M vs 128G; for IC50: read-out: TgCDPK1 128M IC50, introduced methionine gatekeeper, 10 μM ATP
T1 sequence (Q9BJF5 1-507 G128M): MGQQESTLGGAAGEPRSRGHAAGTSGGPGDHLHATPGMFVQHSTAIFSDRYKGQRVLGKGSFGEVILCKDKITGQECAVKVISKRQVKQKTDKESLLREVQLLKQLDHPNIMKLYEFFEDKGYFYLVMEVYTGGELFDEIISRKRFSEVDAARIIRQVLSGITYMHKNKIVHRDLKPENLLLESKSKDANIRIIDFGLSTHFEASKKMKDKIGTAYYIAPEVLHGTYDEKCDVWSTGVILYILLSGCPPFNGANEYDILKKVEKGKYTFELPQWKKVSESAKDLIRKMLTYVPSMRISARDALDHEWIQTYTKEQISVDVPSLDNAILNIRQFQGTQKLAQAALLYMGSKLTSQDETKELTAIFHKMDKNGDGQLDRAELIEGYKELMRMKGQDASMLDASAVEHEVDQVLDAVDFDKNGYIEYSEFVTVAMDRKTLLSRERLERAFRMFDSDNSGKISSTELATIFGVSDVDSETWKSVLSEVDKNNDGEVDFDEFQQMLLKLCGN

TgCDPK1 128G = molecular target: T2, TgCDPK1 128G (Toxoplasma gondii, UniProt Q9BJF5); test: TgCDPK1 enzyme inhibition assay (Kinase Glo), wild type glycine gatekeeper; assay type: biochemical; conditions: read-out: TgCDPK1 128G IC50, 10 μM ATP
T2 sequence (Q9BJF5 1-507): T1 sequence (Q9BJF5 1-507 G128M) with M128G

[5] = vs parent strain, host cell nuclei assay

SMILES: CC(C)(C)n1nc(Cc2cccc3ccccc23)c2c(N)ncnc21 [1-NM-PP1]
- TgCDPK1 G128M TgMAPKL1 L162Q fold increase EC50 ([1]; double mutant vs parent strain, host cell nuclei assay): 89.5 fold
- EC50 [1]: 1700 nM
- TgCDPK1 G128M fold increase EC50 (T. gondii TgCDPK1 G128M; [5]): 7.4 fold
- resistance conferred by TgMAPKL1 S191Y substitution (T. gondii TgMAPKL1 S191Y): conferred resistance
- EC50 (T. gondii parent strain): 19 nM
- EC50 (T. gondii TgMAPKL1 L162Q): 75 nM
- TgMAPKL1 L162Q fold increase EC50 (T. gondii TgMAPKL1 L162Q; [5]): 3.9 fold

SMILES: Cc1cccc(-c2[nH]c(C(C)(C)C)nc2-c2ccc3c(c2)OCO3)n1 [SB505124]
- effect on T. gondii cell cycle (T. gondii cell cycle): arrested the T. gondii cell cycle

SMILES: CCOc1ccc2cc(-c3nn(C(C)(C)C)c(N)c3C(N)=O)cnc2c1 [BKI-1517]
- EC50 [2]: 290 nM
- EC50 [3]: 80 nM

SMILES: CCN(N=O)C(N)=O [ENU, N-ethyl-N-nitrosourea]
- concentration required to kill 70% of a population of tachyzoites [4]: 2 mM

SMILES: CCOc1ccc2cc(-c3nn(CC4CCN(C)CC4)c4ncnc(N)c34)ccc2c1 [BKI-1294]
- EC50 [1]: 3200 nM
- EC50 (T. gondii TgCDPK1 G128M; read-out: TgCDPK1 G128M EC50 (95% CI), remaining host cell nuclei, 5 days): 1500 nM
- EC50 [2]: 66 nM
- EC50 (T. gondii parent strain): 230 nM
- EC50 [3]: 22 nM
- EC50 (T. gondii TgMAPKL1 L162Q): 450 nM
- EC50 (T. gondii TgCDPK1 G128T): 1700 nM

SMILES: CCOc1ccc2cc(-c3nn(C4CCOCC4)c(N)c3C(N)=O)ccc2n1 [BKI-1841]
- Fold Increase IC50 (TgCDPK1 128M): 585 fold
- IC50 (TgCDPK1 128M): 17600 nM
- IC50 (TgCDPK1 128G): 30 nM
- Fold Increase EC50 [2]: 2.90 fold
- EC50 [2]: 400 nM
- EC50 [3]: 140 nM

SMILES: CCOc1ccc2cc(-c3nn(CC4CCN(C)CC4)c4ncnc(N)c34)ccc2n1 [BKI-1369]
- Fold Increase IC50 (TgCDPK1 128M): 2246 fold
- IC50 (TgCDPK1 128M): 13700 nM
- IC50 (TgCDPK1 128G): 6 nM
- Fold Increase EC50 [2]: 3.20 fold
- EC50 [2]: 120 nM
- EC50 [3]: 38 nM

Source: publication PMC12172689 (ACS infectious diseases, 2025)
